Laboratory results reported in patent US7537911B2, “ATM related kinase, ATX, nucleic acids encoding same and methods of use” (Burnham Institute for Medical Research, priority 2002, dated 2009).

Assays:
[1] = molecular target: T1, ATX (Homo sapiens, UniProt Q96Q15); test: Immune complex kinase assay, immunoprecipitated HA-ATXWT, GST-p53 1-70 substrate; format: biochemical; details: pretreatment of immunoprecipitated HA-ATXWT; GST-p53 1-70 phosphorylation; read-out: drug concentration required for 50% inhibition (IC50) of ATX activity in vitro
T1 construct: expressed in transfected cells; host or cells: HEK 293T, pcDNA3.1, immunoprecipitated with anti-HA antibody
T1 sequence (Q96Q15 141-3661 S144C): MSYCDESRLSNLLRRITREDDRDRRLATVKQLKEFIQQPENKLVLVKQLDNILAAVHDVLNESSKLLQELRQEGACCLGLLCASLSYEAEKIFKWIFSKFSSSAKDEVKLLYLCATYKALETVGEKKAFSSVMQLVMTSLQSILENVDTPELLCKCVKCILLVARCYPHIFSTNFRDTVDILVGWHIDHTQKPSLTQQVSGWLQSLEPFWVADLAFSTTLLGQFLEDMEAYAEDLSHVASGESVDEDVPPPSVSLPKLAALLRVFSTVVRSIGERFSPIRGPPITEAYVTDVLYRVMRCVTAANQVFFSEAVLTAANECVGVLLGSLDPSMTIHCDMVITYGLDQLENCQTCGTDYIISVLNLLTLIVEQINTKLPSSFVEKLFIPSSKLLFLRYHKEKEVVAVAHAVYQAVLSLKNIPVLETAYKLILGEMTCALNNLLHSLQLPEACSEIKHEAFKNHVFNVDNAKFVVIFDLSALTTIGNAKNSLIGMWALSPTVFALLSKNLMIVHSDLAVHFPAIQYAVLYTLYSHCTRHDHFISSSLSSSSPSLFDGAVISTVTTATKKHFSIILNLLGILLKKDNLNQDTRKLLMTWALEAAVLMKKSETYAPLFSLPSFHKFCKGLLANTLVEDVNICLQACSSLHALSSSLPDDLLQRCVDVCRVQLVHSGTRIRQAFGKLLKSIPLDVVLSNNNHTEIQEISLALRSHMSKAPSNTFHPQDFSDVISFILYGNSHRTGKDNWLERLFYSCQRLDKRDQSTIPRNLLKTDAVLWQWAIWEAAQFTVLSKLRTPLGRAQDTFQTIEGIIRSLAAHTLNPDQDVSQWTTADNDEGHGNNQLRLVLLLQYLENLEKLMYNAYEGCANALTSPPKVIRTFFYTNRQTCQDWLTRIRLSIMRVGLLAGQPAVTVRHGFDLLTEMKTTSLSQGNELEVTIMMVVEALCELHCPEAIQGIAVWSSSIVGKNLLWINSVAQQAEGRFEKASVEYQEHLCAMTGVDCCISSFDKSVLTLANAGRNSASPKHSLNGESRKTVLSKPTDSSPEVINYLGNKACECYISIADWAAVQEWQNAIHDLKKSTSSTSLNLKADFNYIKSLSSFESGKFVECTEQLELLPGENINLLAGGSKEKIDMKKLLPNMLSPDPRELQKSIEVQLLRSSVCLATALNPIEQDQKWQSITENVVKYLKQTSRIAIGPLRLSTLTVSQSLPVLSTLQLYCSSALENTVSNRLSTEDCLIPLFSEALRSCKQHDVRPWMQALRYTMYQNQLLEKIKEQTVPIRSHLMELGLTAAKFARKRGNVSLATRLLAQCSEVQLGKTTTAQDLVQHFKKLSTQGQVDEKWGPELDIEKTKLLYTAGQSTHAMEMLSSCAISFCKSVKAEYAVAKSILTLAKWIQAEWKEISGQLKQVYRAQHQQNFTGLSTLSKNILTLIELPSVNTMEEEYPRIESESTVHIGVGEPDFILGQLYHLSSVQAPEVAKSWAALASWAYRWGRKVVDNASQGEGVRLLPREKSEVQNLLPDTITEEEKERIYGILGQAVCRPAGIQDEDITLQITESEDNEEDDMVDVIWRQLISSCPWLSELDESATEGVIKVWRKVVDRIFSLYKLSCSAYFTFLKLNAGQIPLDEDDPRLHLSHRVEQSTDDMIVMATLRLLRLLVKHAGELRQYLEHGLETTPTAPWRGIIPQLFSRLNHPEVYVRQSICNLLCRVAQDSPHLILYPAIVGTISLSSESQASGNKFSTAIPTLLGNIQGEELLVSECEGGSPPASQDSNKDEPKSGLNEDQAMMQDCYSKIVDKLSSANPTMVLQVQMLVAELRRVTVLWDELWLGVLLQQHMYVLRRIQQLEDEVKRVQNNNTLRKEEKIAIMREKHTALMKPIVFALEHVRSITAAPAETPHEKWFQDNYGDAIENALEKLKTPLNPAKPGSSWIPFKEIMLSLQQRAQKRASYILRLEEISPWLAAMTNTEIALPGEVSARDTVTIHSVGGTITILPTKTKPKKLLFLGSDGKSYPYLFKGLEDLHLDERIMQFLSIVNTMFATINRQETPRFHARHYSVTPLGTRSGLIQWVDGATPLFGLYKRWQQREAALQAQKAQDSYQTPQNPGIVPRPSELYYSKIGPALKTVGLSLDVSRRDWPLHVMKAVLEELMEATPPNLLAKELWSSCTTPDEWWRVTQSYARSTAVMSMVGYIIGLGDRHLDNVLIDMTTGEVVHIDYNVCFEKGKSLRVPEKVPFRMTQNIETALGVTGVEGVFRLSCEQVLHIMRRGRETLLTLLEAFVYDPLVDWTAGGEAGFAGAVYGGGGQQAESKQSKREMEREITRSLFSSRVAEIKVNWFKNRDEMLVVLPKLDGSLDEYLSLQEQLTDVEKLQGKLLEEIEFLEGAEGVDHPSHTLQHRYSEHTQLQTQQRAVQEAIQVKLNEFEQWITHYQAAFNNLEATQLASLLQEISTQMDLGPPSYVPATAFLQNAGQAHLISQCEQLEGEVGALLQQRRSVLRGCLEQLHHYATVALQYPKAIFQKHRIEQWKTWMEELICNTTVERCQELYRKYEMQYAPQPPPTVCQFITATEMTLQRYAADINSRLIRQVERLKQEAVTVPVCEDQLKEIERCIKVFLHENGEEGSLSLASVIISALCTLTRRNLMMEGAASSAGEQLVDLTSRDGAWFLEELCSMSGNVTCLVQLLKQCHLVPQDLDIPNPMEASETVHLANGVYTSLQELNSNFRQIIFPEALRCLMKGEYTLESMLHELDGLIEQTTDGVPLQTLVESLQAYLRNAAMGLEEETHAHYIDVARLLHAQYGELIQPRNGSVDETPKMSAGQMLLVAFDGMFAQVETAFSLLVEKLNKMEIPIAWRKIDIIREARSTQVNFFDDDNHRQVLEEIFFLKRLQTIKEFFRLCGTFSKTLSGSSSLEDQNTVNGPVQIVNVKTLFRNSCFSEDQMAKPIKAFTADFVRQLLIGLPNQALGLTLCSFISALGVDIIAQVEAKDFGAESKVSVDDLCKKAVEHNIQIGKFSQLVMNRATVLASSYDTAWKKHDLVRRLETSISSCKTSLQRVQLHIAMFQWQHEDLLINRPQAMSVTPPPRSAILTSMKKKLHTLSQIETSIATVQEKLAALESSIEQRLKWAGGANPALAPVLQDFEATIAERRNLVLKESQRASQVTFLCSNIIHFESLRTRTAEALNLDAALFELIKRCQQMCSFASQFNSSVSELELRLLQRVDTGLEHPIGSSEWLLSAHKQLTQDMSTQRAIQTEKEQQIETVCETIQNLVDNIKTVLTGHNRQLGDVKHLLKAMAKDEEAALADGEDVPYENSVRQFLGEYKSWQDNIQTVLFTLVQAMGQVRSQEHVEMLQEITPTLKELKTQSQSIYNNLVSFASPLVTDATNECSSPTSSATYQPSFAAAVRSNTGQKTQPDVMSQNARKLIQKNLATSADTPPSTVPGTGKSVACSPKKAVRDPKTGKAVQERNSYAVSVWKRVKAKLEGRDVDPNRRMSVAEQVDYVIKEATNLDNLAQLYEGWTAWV

[2] = test system: U2OS cells; test: Cell-cycle distribution by flow cytometry; format: cell-based, human; details: for cell-cycle distribution after IR exposure: 24 h post-irradiation
Description: To test this possibility, U2OS cells were pre-treated with S or AS oligonucleotides, exposed to IR, and cell-cycle distributions at 24 h post-irradiation were determined.

[3] = test system: U2OS cells; test: Clonogenic survival assay of oligonucleotide-transfected cells; format: cell-based, human; details: for reduction of basal level of colony outgrowth (basal clonogenic activity): non-irradiated, 10 days in culture
[4] = test system: hChk2; test: IR-dependent phosphorylation of hChk2 (immunoblot); format: cell-based, human; details: U2OS
Text: Recent findings point toward ATM as a critical upstream regulator of the activity of the checkpoint kinase, hChk2, in IR-damaged cells (Ahn et al., Cancer Res. 60:5934-5936 (2000); Melchionna et al., Nat. Cell Biol. 2:762-765 (2000)). To determine whether ATX was also involved in hChk2 activation, the effect of AS oligonucleotide treatment on the IR-dependent phosphorylation of hChk2 was examined. […] Moreover, the differential effects of AS treatment on p53 expression versus hChk2 activation argue against the possibility that AS exposure leads to nonspecific inhibition of checkpoint signaling responses to IR-induced DNA damage.

[5] = test system: ATX; test: ATX protein level in oligonucleotide-treated cells (immunoblot); format: cell-based, human; details: U2OS
[6] = test system: p53; test: p53 Ser-15 phosphorylation and p53 accumulation (immunoblot); format: cell-based, human
Text: A major mediator of stress-induced signaling in mammalian cells is the tumor suppressor protein, p53 (Ko and Prives, Genes and Development 10:1054-1072, (1996); Ryan et al., Curr. Opin. Cell Biol. 13:332-337 (2001)). ATX phosphorylates p53 on Ser-15 (FIG. 1C), a site implicated in the regulation of p53 stability and transcriptional activity (Dumaz and Meek, Curr. Opin. Cell Biol. 13:225-231 (1999); Zhang and Xiong, Science 292:1910-1915 (2001)). Therefore, the possibility that these two proteins are functionally linked during cellular stress responses was investigated. U2OS cells were transiently transfected with a HA-ATXWT or HA-ATXKI expression plasmid, together with a GFP-encoding plasmid to allow for FACS-based enrichment of the transfected cells. The GFP+ cells were then examined for IR-induced stabilization of p53, as well as for specific phosphorylation of this protein on Ser-15. […] In contrast, overexpression of ATXWT enhanced both of these responses in cells exposed to IR.
The recognition of UV light-induced DNA damage occurs primarily during S phase, when pyrimidine dimers and other bulky lesions interfere with replication fork progression (Friedberg, DNA Repair and Mutagenesis (Washington, D.C., ASM Press) (1995); Lindahl and Wood, Cell 103:1121-1131 (1999)).
In order to further define the potential linkage between DNA replicational stress and ATX, the response of AS-treated cells to 5-fluorouracil (5-FU), an S-phase specific cytotoxic agent was examined (Danenberg et al., Seminars in Oncology. 26:621-631 (1999); Grem, Investigational New Drugs 18:299-313 (2000)).
Changes in phosphorylation at Ser-15 are typically accompanied by alterations in the expression of the p53 protein, which complicates the interpretation of results obtained by immunoblotting of whole cell extracts with phospho-Ser-15-specific antibodies. In order to confirm that reduced ATX expression interferes with stress-induced Ser-15 phosphorylation, U2OS cells were transfected with either the S or AS oligonucleotide, and then were pretreated with the proteasome inhibitor, LLnV, to stabilize p53. In the presence of LLnV, the p53 level in each test population was relatively unaffected by UV exposure (data not shown). However, the ratio of phospho-Ser-15 to total p53 protein was increased by UV irradiation of both the mock-transfected and S oligonucleotide-treated cells.

Compound: COC[C@H]1OC(=O)c2coc3c2[C@@]1(C)C1=C(C3=O)[C@@H]2CCC(=O)[C@@]2(C)C[C@H]1OC(C)=O [wortmannin]
- IC50 [1]: 10 to 100 nM

Compound: 5′-GAGACAGGAGGGAGCTTGCT-3′ (all phosphorothioate, sugars by position and methylation of C not given here) [S oligonucleotide, reference compound]
- cell-cycle distribution after IR exposure [2]: accumulated in both G1 and G2/M phases
- reduction of basal level of colony outgrowth (basal clonogenic activity) [3]: 25%

Compound: 5′-AGCAAGCTCCCTCCTGTCTC-3′ (phosphorothioate backbone, further chemistry not given here) [AS oligonucleotide, antisense phosphorothioate oligonucleotide complementary to ATX nucleotides 210-229]
- cell-cycle distribution after IR exposure [2]: arrested primarily in G2/M phase
- cell-cycle distribution in the absence of IR ([2]; compared to S oligonucleotide-treated cells): reduction in the percentage of G1 phase cells, and a concomitant accumulation of G2/M phase cells
- IR-dependent phosphorylation of hChk2 [4]: retained the ability to phosphorylate hChk2
- expression levels of control proteins ATM and PLC-γ1 ([5]; immunoblot): no significant change
- reduction in ATX protein ([5]; over 10 independent trials): 50-90%
- sensitivity to suppressive effects of IR and UV on clonogenic survival ([3]; IR (FIG. 2C) and UV): significantly more sensitive
- reduction of basal level of colony outgrowth (basal clonogenic activity) [3]: 75%
- level of p53 induction by 5-FU ([6]; AS-treated U2OS versus S-treated): identical to that observed in their S-treated counterparts
- stoichiometric increase in Ser-15 phosphorylation triggered by UV-induced stress ([6]; U2OS pretreated with proteasome inhibitor LLnV): effectively blocked
- phosphorylation and stabilization of p53 induced by IR exposure ([6]; U2OS, IR): reduced both the phosphorylation and stabilization of p53
- Ser-15 phosphorylation and p53 protein accumulation in UV-damaged cells ([6]; U2OS, UV): severely impaired

Compound: O=c1[nH]cc(F)c(=O)[nH]1 [5-FU, 5-fluorouracil, reference compound]
- p53 Ser-15 phosphorylation ([6]; U2OS treated with the drug): not accompanied by an increase in Ser-15 phosphorylation
- p53 expression ([6]; U2OS treated with the drug): increased p53 expression to levels similar to those observed in UV-irradiated cells
